From US11767564B2, “Use of SDHA as a prognostic marker and therapeutic target in uveal melanoma” (Board of Regents, The University of Texas System, priority 2017, dated 2023)

Columns and labels:
[1] = tested on: monosomy 3 uveal melanoma cell lines; assay: Cell survival analysis with OXPHOS inhibitor IACS-10759; format: cell-based
Method: Cell survival analysis with monosomy and disomy 3 uveal melanoma cells in presence and absence of oxidative phosphorylation (OXPHOS) inhibitor, IACS-10759, was performed. Cells were cultured under ambient oxygen or 1% oxygen. Mitotracker Red dye staining was used to assay the extent of active mitochondria in monosomy 3 and disomy 3 cells. The percent cell survival of uveal melanoma cells treated with increasing concentrations of OXPHOS inhibitor, IACS-10759, was determined.

[2] = tested on: monosomy 3 and disomy 3 cells; assay: Percent cell survival with SDHA and/or MIF inhibitors; format: cell-based; conditions: simultaneous 20 nM SDHA siRNA and 10 or 25 μM ISO-1; both cell lines (monosomy 3, disomy 3); FIG. 7B
Source text: FIGS. 7A-7B: (FIG. 7A) Survival rate of uveal melanoma predicted using TCGA data. SDHA and MIF expression both above median is associated with lowest survival rate. SDHA and MIF both below median is associated with highest survival rate. SDHA below median and MIF above median expression is associated with the second lowest survival rate (p<0.001). (FIG. 7B) In vitro validation of association of SDHA and MIF expression with uveal melanoma cell survival.
Accordingly, the survival rate of uveal melanoma was predicted using TCGA data of SDHA and/or MIF expression. SDHA and MIF expression both above median was associated with lowest survival rate (FIG. 7A). On the other hand, SDHA and MIF both below median was associated with highest survival rate. Thus, both SDHA and MIF expression correlate with survival rate of uveal melanoma patients and may be used for prognosis. The association of SDHA and MID with uveal melanoma survival rate was validated by measuring percent cell survival in monosomy 3 and disomy 3 cells treated with SHDA and/or MIF inhibitors. SDHA was inhibited by 20 nM siRNA and MIF was inhibited by 10 or 25 μM ISO-1.

Compound | percent cell survival, resistance to inhibitor ([1]; monosomy 3 lines under hypoxic conditions (1% oxygen) or in galactose media) | percent cell survival, resistance to inhibitor ([1]; three monosomy 3 UM cell lines compared to three lines with normal chromosome 3 copy number, increasing concentrations) | percent cell survival [2]
Cc1nc(-c2nc(-c3ccc(OC(F)(F)F)cc3)no2)nn1Cc1cccc(N2CCC(S(C)(=O)=O)CC2)c1 [IACS-10759] | resistance diminishes | more resistant to IACS-10759 | –
COC(=O)CC1CC(c2ccc(O)cc2)=NO1 (stereo not drawn) [ISO-1] | – | – | highest decrease in percent cell survival
